Test results reported in patent US8791113B2, “2,4-diaryl-substituted [1,8] naphthyridines as kinase inhibitors for use against cancer” (Merck Patent GmbH, priority 2010, dated 2014).
Where a name gives a salt, the structure may show the parent alone. Read-outs that look alike come from different tables or passages of the source.

What was measured:
[1] = biological target: T1, GST-ALK5 (TGF-beta receptor kinase) (Homo sapiens, UniProt P36897); assay: In-vitro (enzyme) kinase flashplate assay: GST-ALK5 phosphorylation of GST-SMAD2 with 33P-ATP; assay type: biochemical; settings: 384-well flashplate kinase assay, GST-ALK5 / GST-SMAD2, 33P-ATP, 30° C., 45 min; read-out: TβR activity (Example 50)
T1 sequence (P36897 34-503): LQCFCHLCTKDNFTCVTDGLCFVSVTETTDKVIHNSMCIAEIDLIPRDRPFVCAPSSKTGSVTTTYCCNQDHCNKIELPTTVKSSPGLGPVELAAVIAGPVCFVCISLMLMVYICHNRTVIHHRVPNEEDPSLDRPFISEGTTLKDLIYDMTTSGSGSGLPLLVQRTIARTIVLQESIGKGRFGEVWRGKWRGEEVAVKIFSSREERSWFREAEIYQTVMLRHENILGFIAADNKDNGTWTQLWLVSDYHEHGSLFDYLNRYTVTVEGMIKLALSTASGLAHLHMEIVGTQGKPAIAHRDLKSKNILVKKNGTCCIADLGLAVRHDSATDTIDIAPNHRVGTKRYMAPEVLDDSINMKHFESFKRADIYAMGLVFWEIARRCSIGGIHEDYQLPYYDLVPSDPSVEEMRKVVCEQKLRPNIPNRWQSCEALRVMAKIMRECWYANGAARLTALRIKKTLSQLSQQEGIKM
Experimental: In-vitro (Enzyme) Assay for Determination of the Efficacy of Inhibitors of the Inhibition of TGF-Beta-Mediated Effects
The kinase assay was carried out as 384-well flashplate assay. 31.2 nM of GST-ALK5, 439 nM of GST-SMAD2 and 3 mM of ATP (with 0.3 μCi of ^33P-ATP/well) were incubated in a total volume of 35 μl (20 mM of HEPES, 10 mM of MgCl2, 5 mM of MnCl2, 1 mM of DTT, 0.1% of BSA, pH 7.4) without or with test substance (5-10 concentrations) at 30° C. for 45 min. The reaction was stopped using 25 μl of 200 mM EDTA solution, filtered with suction at room temperature after 30 min, and the wells were washed with 3 times 100 μl of 0.9% NaCl solution. Radioactivity was measured in the TopCount. The IC50 values were calculated using RS1.

[2] = system: TGF-beta-induced phosphorylation of Smad2 (Ser465/467) and Smad3 (Ser423/425) in Mv1-Lu cells; assay: Inhibition of Smad2/3 phosphorylation in Mv1Lu cells (PathScan Phospho-Smad2 ELISA); assay type: cell-based, mink Mustela vison; settings: Neogale vison, read-out: TβR activity (Example 51)
Experimental: Inhibition of Smad2/3 Phosphorylation in Mv1 Lu Cells by TGF-Beta Receptor I Kinase Inhibitors
This assay was used to determine the inhibitory potency of compounds on TGF-beta-induced phosphorylation of Smad2 (Ser465/467) and Smad3 (Ser423/425). Mv1-Lu cells (lung epithelial cell line from mink Mustela vison; ATCC number: CCL-64) were seeded in DMEM (Invitrogen) supplemented with 10% fetal bovine serum (Pan Biotech) at a defined cell density in 24-well or 96-well plates (24-well plate: 1.5×10^5 cells per well; 96-well plate: 4×10^4 cells per well). Cell cultures were incubated in DMEM at 37° C. and 10% CO2. On the next day, the medium was replaced and cells were serum-starved for 16-20 hours. The following day, serial dilutions of compounds were added to the wells, pre-incubated for 1.5 hrs before recombinant TGF-beta 1 ligand (final concentration 5 ng/ml; R&D systems) was added. After one hour of ligand stimulation, lysates were prepared and analyzed using an enzyme-linked immunosorbent assay kit (PathScan Phospho-Smad2 Kit, Cell Signaling Technologies). The ELISA detects phosphorylated Smad2 as well as phosphorylated Smad3 with the phospho-specific antibody. TGF-beta stimulated cells and unstimulated cells served as positive and negative controls (100% and background control). The concentration of the vehicle DMSO was kept constant at 0.2% (v/v) in all wells. Dose-response relationships were fitted using curve fitting algorithms of the RS1 statistics software package (Brooks Automation Inc. RS/1- Statistical Tools Handbook. Release 6.2) to determine the concentration at which half-maximal inhibition (IC50) of Smad2/3 phosphorylation was achieved.

[3] = Mv1-Lu cells, TGF-beta 1 5 ng/ml, Phospho-Smad2/3 ELISA

`Nc1nccc2c(-c3cc(-c4ccccc4F)nc4ncccc34)ccnc12` [Compound 113, 4-[2-(2-Fluoro-phenyl)-[1,8]naphthyridin-4-yl]-[1,7]naphthyridin-8-ylamine] was tested, and the IC50 [1] was under 1 µM and the IC50 [2, 3] was under 1 µM.

In the case of `[O-][n+]1ccc2c(-c3cc(-c4ccccc4F)nc4ncccc34)nccc2c1` [Compound 88, 2-(2-Fluoro-phenyl)-4-(6-oxy-[2,6]naphthyridin-1-yl)-[1,8]naphthyridine], the IC50 [1] is reported as over 10 µM and the IC50 [2, 3] is reported as over 10 µM.

`O=c1c2cnccc2c(-c2cc(-c3cc(Cl)ccc3F)nc3ncccc23)cn1CCN1CCCC1` [Compound 91, 4-[2-(5-Chloro-2-fluoro-phenyl)-[1,8]naphthyridin-4-yl]-2-(2-pyrrolidin-1-yl-ethyl)-2H-[2,7]naphthyridin-1-one] was tested, and the IC50 [1] was under 1 µM and the IC50 [2, 3] was under 1 µM.

In the case of `CCN(CC)CCNc1ccc(-c2cc(-c3cc(Cl)ccc3F)nc3ncccc23)c2ccncc12` [Compound 92, N′-{5-[2-(5-Chloro-2-fluoro-phenyl)-[1,8]naphthyridin-4-yl]-isoquinolin-8-yl}-N,N-diethyl-ethane-1,2-diamine], the IC50 [1] is reported as under 1 µM and the IC50 [2, 3] is reported as under 1 µM.

`CCN(CC)CCOc1ccc(-c2cc(-c3cc(F)ccc3F)nc3ncccc23)c2ccncc12` [Compound 103, (2-{5-[2-(2,5-Difluoro-phenyl)-[1,8]naphthyridin-4-yl]-isoquinolin-8-yloxy}-ethyl)-diethyl-amine] gave an IC50 [1] of under 1 µM and an IC50 [2, 3] of under 1 µM.

For `O=c1[nH]cc(-c2cc(-c3cc(F)ccc3F)nc3ncccc23)c2ccncc12` [Compound 107, 4-[2-(2,5-Difluoro-phenyl)-[1,8]naphthyridin-4-yl]-2H-[2,7]naphthyridin-1-one], the IC50 [1] was under 1 µM and the IC50 [2, 3] was under 1 µM.

Molecule `Cc1ccn(-c2cc(-c3c[nH]c4cnccc34)c3cccnc3n2)n1` [Compound 118, 2-(3-Methyl-pyrazol-1-yl)-4-(1H-pyrrolo[2,3-c]pyridin-3-yl)-[1,8]naphthyridine] has an IC50 [1] of under 1 µM and an IC50 [2, 3] of under 1 µM.

With `O=c1[nH]cc(-c2cc(-c3cc(Cl)ccc3F)nc3ncccc23)c2ccncc12` [Compound 89, 4-[2-(5-Chloro-2-fluoro-phenyl)-[1,8]naphthyridin-4-yl]-2H-[2,7]naphthyridin-1-one] the IC50 [1] was under 1 µM and the IC50 [2, 3] was under 1 µM.

`Cc1cccc(-c2cc(-c3cccc4c(N)nccc34)c3cccnc3n2)n1` [Compound 6, 5-[2-(6-Methyl-pyridin-2-yl)-[1,8]naphthyridin-4-yl]-isoquinolin-1-ylamine] showed an IC50 [1] of under 1 µM and an IC50 [2, 3] of under 1 µM.

For `Nc1ccc(-c2cc(-c3cc(Cl)ccc3F)nc3ncccc23)c2ccncc12` [Compound 22, 5-[2-(5-Chloro-2-fluoro-phenyl)-[1,8]naphthyridin-4-yl]-isoquinolin-8-ylamine hydrochloride], the IC50 [1] was under 1 µM and the IC50 [2] was under 1 µM.

For `Nc1nccc2c(-c3cc(-c4cc(Cl)ccc4F)nc4ncccc34)cccc12` [Compound 4, 5-[2-(5-Chloro-2-fluoro-phenyl)-[1,8]naphthyridin-4-yl]-isoquinolin-1-ylamine], the IC50 [1] was under 1 µM and the IC50 [2, 3] was under 1 µM.

`Fc1ccccc1-c1cc(-c2ccnc3cnccc23)c2cccnc2n1` [Compound 111, 4-[2-(2-Fluoro-phenyl)-[1,8]naphthyridin-4-yl]-[1,7]naphthyridine] gave an IC50 [1] of under 1 µM and an IC50 [2, 3] of over 10 µM.

With `COCC(=O)Nc1nccc2c(-c3cc(-c4ccccc4F)nc4ncccc34)nccc12` [Compound 73, N-{5-[2-(2-Fluoro-phenyl)-[1,8]naphthyridin-4-yl]-[2,6]naphthyridin-1-yl}-2-methoxy-acetamide] the IC50 [1] was 1 to 10 µM and the IC50 [2, 3] was 1 to 10 µM.

`c1coc(-c2cc(-c3c[nH]c4cnccc34)c3cccnc3n2)c1` [Compound 101, 2-Furan-2-yl-4-(1H-pyrrolo[2,3-c]pyridin-3-yl)-[1,8]naphthyridine] was tested, and the IC50 [1] was under 1 µM and the IC50 [2, 3] was under 1 µM.

`Cn1cc(-c2ccc(-c3cc(-c4ccccc4F)nc4ncccc34)c3cnccc23)cn1` [Compound 64, 2-(2-Fluoro-phenyl)-4-[5-(1-methyl-1H-pyrazol-4-yl)-isoquinolin-8-yl]-[1,8]naphthyridine] gave an IC50 [1] of 1 to 10 µM and an IC50 [2, 3] of under 1 µM.

`Fc1ccccc1-c1cc(-c2ccc(OCCN3CCOCC3)c3cnccc23)c2cccnc2n1` [Compound 25, 2-(2-fluoro-phenyl)-4-[8-(2-morpholin-4-yl-ethoxy)-isoquinolin-5-yl]-[1,8]naphthyridine] was tested, and the IC50 [1] was under 1 µM and the IC50 [2, 3] was under 1 µM.

`Cc1cccc(-c2cc(-c3nccc4c(N)nccc34)c3cccnc3n2)n1` [Compound 21, 5-[2-(6-Methyl-pyridin-2-yl)-[1,8]naphthyridin-4-yl]-[2,6]naphthyridin-1-ylamine hydrochloride] showed an IC50 [1] of under 1 µM and an IC50 [2] of under 1 µM.

Work on `Cc1ccc(-c2cc(-c3nccc4c(N)nccc34)c3cccnc3n2)o1` [Compound 84, 5-[2-(5-Methyl-furan-2-yl)-[1,8]naphthyridin-4-yl]-[2,6]naphthyridin-1-ylamine] yielded an IC50 [1] of under 1 µM and an IC50 [2, 3] of under 1 µM.

Work on `Fc1ccccc1-c1cc(-c2nccc3cnccc23)c2cccnc2n1` [Compound 23, 2-(2-Fluoro-phenyl)-4-[2,6]naphthyridin-1-yl-[1,8]naphthyridine] yielded an IC50 [1] of 1 to 10 µM and an IC50 [2, 3] of 1 to 10 µM.

In the case of `Nc1nccc2c(-c3cc(-c4cc(F)ccc4F)nc4ncccc34)cccc12` [Compound 10, 5-[2-(2,5-Difluoro-phenyl)-[1,8]naphthyridin-4-yl]-isoquinolin-1-ylamine], the IC50 [1] is reported as under 1 µM and the IC50 [2, 3] is reported as under 1 µM.

`Fc1ccc(Cl)cc1-c1cc(-c2ncnc3cnccc23)c2cccnc2n1` [Compound 24, 4-[2-(5-Chloro-2-fluoro-phenyl)-[1,8]naphthyridin-4-yl]-pyrido[3,4-d]pyrimidine] was tested, and the IC50 [1] was under 1 µM and the IC50 [2, 3] was 1 to 10 µM.

`CN(C)CC(=O)Nc1nccc2c(-c3cc(-c4ccccc4F)nc4ncccc34)nccc12` [Compound 71, 2-Dimethylamino-N-{5-[2-(2-fluoro-phenyl)-[1,8]naphthyridin-4-yl]-[2,6]naphthyridin-1-yl}-acetamide] gave an IC50 [1] of 1 to 10 µM and an IC50 [2, 3] of 1 to 10 µM.

`COc1ccc(-c2cc(-c3cc(F)ccc3F)nc3ncccc23)c2ccncc12` [Compound 99, 2-(2,5-Difluoro-phenyl)-4-(8-methoxy-isoquinolin-5-yl)-[1,8]naphthyridine] was tested, and the IC50 [1] was under 1 µM and the IC50 [2, 3] was under 1 µM.

With `Nc1nccc2c(-c3cc(-c4ccccc4)nc4ncccc34)nccc12` [Compound 87, 5-(2-Phenyl-[1,8]naphthyridin-4-yl)-[2,6]naphthyridin-1-ylamine] the IC50 [1] was under 1 µM and the IC50 [2, 3] was under 1 µM.

`Fc1ccc(Cl)cc1-c1cc(-c2c[nH]c3cnccc23)c2cccnc2n1` [Compound 1, 2-(5-Chloro-2-fluoro-phenyl)-4-(1H-pyrrolo[2,3-c]pyridin-3-yl)-[1,8]naphthyridine] gave an IC50 [1] of under 1 µM and an IC50 [2, 3] of under 1 µM.

`Nc1cc2cnccc2c(-c2cc(-c3ccccc3F)nc3ncccc23)n1` [Compound 66, 1-[2-(2-Fluoro-phenyl)-[1,8]naphthyridin-4-yl]-[2,6]naphthyridin-3-ylamine] showed an IC50 [1] of under 1 µM and an IC50 [2, 3] of under 1 µM.

Work on `COc1cnc(-c2cc(-c3ccccc3F)nc3ncccc23)c2ccncc12` [Compound 115, 2-(2-Fluoro-phenyl)-4-(4-methoxy-[2,6]naphthyridin-1-yl)-[1,8]naphthyridine] yielded an IC50 [1] of under 1 µM and an IC50 [2, 3] of under 1 µM.
